Reference: patent publication US9937151B2, “Carbapenem antibacterials with gram-negative activity” (priority 2010, dated 2018)
Converted amounts (≈) assume the structure as drawn.

Test system: G(−) bacterial strains
Test: Dilution antimicrobial susceptibility tests (MIC, NCCLS agar dilution / broth dilution)
Format: cell-based, Gram-negative organisms
Settings: unit assumed
Experimental: The MIC (minimum inhibitory concentration) was determined by the NCCLS (National Committee for Clinical Laboratory Standards) methods 2000. Methods for dilution antimicrobial susceptibility testing for bacteria that growth aerobically (M7-A5, vol. 20, No. 2). The agar dilution method for determining antimicrobial susceptibility was carried out using Mueller-Hinton agar. A final inoculum of 10^4 CFU/spot was applied with an inoculation device. Broth dilution tests were performed with 5×10^5 CFU/well in 96 well plates. The susceptibilities of streptococci were determined by Mueller-Hinton agar supplemented with 5% sheep blood. All assays were run with the indicated control strains, available from the ATCC (American Type Culture Collection, Rockville, Md.).
Abbreviations used in Table 1 are defined as follows: Cf-R: Ceftazidime Resistance, Ci-R: Ciprofloxacin Resistance, Gen-R: Gentamycin Resistance, Imp-R: Imipenem Resistance, Mp-R: Meropenem Resistance, Ofx-R: Ofloxacin Resistance, B+: β-lactamase Production, AmpC: AmpC-lactamase Hyper production, CBPase: Carbapenemase Production.

[1] = strain #1 Acinetobacter calcoaceticus
[2] = strain #2 Acinetobacter baumannii, Cf-R, Ci-R
[3] = strain #3 Acinetobacter baumannii, Cf-R, Ci-R, Mp-I
[4] = strain #4 Acinetobacter baumannii, Cf-R, Imp-I, CBPase
[5] = strain #7 Enterobacter aerogenes
[6] = strain #8 Enterobacter cloacae, Cf-R, B+
[7] = strain #9 Enterobacter cloacae, Cf-R
[8] = strain #10 Escherichia coli, Ci-R
[9] = strain #11 Escherichia coli, Ci-R, AmpC
[10] = strain #15 Klebsiella pneumoniae
[11] = strain #16 Moraxella catarrhalis
[12] = strain #21 Providencia rettgeri
[13] = strain #22 Salmonella typhimurium
[14] = strain #25 Shigella dysenteriae
[15] = strain #28 Stenotrophomonas maltophilia
[16] = strain #29 Pseudomonas aeruginosa
[17] = strain #30 Pseudomonas aeruginosa
[18] = strain #31 Pseudomonas aeruginosa, Ofx-R
[19] = strain #32 Pseudomonas aeruginosa, Cf-R
[20] = strain #33 Pseudomonas aeruginosa, Ci-R
[21] = strain #34 Pseudomonas aeruginosa, Gen-R
[22] = strain #35 Pseudomonas aeruginosa, Ip-R
[23] = strain #36 Pseudomonas aeruginosa, Cf-R, Ci-R, Mp-R

SMILES	MIC [1] [µg/mL]	MIC [2] [µg/mL]	MIC [3] [µg/mL]	MIC [4] [µg/mL]	MIC (strain #5 Citrobacter diversus) [µg/mL]	MIC (strain #6 Citrobacter freundii) [µg/mL]	MIC [5] [µg/mL]	MIC [6] [µg/mL]	MIC [7] [µg/mL]	MIC [8] [µg/mL]	MIC [9] [µg/mL]	MIC (strain #12 Escherichia coli) [µg/mL]	MIC (strain #13 Escherichia coli) [µg/mL]	MIC (strain #14 Klebsiella oxytoca) [µg/mL]	MIC [10] [µg/mL]	MIC [11] [µg/mL]	MIC (strain #17 Morganella Morganii) [µg/mL]	MIC (strain #18 Morganella Morganii) [µg/mL]	MIC (strain #19 Proteus vulgaris) [µg/mL]	MIC (strain #20 Proteus mirabilis) [µg/mL]	also measured
C[C@@H](O)C1C(=O)N2C(C(=O)O)=C(CN3CC(N)C3)[C@H](C)C12 (stereo partly drawn) [Compound 93]	1 (≈ 3.39 µM)	2 (≈ 6.77 µM)	8 (≈ 27.1 µM)	2 (≈ 6.77 µM)	0.25 (≈ 0.846 µM)	0.5 (≈ 1.69 µM)	2 (≈ 6.77 µM)	0.25 (≈ 0.846 µM)	0.5 (≈ 1.69 µM)	0.25 (≈ 0.846 µM)	0.25 (≈ 0.846 µM)	0.25 (≈ 0.846 µM)	0.5 (≈ 1.69 µM)	0.5 (≈ 1.69 µM)	0.5 (≈ 1.69 µM)	0.031 (≈ 0.105 µM)	8 (≈ 27.1 µM)	4 (≈ 13.5 µM)	2 (≈ 6.77 µM)	0.5 (≈ 1.69 µM)	MIC [12]: 2 µg/mL (≈ 6.77 µM); MIC [13]: 0.5 µg/mL (≈ 1.69 µM); MIC (strain #23 Serratia marcescens): 1 µg/mL (≈ 3.39 µM); MIC (strain #24 Serratia marcescens): 1 µg/mL (≈ 3.39 µM); MIC [14]: 0.5 µg/mL (≈ 1.69 µM); MIC (strain #26 Shigella sonnei): 0.5 µg/mL (≈ 1.69 µM); MIC (strain #27 Shigella flexneri): 0.25 µg/mL (≈ 0.846 µM); MIC [15]: 0.5 µg/mL (≈ 1.69 µM); MIC [16]: 4 µg/mL (≈ 13.5 µM); MIC [17]: 4 µg/mL (≈ 13.5 µM); MIC [18]: 4 µg/mL (≈ 13.5 µM); MIC [19]: 4 µg/mL (≈ 13.5 µM); MIC [20]: 8 µg/mL (≈ 27.1 µM); MIC [21]: 8 µg/mL (≈ 27.1 µM); MIC [22]: 16 µg/mL (≈ 54.2 µM); MIC [23]: 16 µg/mL (≈ 54.2 µM)
C[C@@H](O)C1C(=O)N2C(C(=O)O)=C(CN3CC[C@H](CNC(=N)N)C3)[C@H](C)C12 (stereo partly drawn) [Compound 99]	0.25 (≈ 0.684 µM)	1 (≈ 2.74 µM)	2 (≈ 5.47 µM)	2 (≈ 5.47 µM)	0.5 (≈ 1.37 µM)	1 (≈ 2.74 µM)	2 (≈ 5.47 µM)	0.5 (≈ 1.37 µM)	1 (≈ 2.74 µM)	0.5 (≈ 1.37 µM)	0.5 (≈ 1.37 µM)	0.5 (≈ 1.37 µM)	1 (≈ 2.74 µM)	2 (≈ 5.47 µM)	1 (≈ 2.74 µM)	≤ 0.008	4 (≈ 10.9 µM)	4 (≈ 10.9 µM)	2 (≈ 5.47 µM)	1 (≈ 2.74 µM)	MIC [12]: 4 µg/mL (≈ 10.9 µM); MIC [13]: 1 µg/mL (≈ 2.74 µM); MIC (strain #23 Serratia marcescens): 2 µg/mL (≈ 5.47 µM); MIC (strain #24 Serratia marcescens): 4 µg/mL (≈ 10.9 µM); MIC [14]: 1 µg/mL (≈ 2.74 µM); MIC (strain #26 Shigella sonnei): 1 µg/mL (≈ 2.74 µM); MIC (strain #27 Shigella flexneri): 1 µg/mL (≈ 2.74 µM); MIC [15]: 0.25 µg/mL (≈ 0.684 µM); MIC [16]: 2 µg/mL (≈ 5.47 µM); MIC [17]: 2 µg/mL (≈ 5.47 µM); MIC [18]: 1 µg/mL (≈ 2.74 µM); MIC [19]: 4 µg/mL (≈ 10.9 µM); MIC [20]: 4 µg/mL (≈ 10.9 µM); MIC [21]: 4 µg/mL (≈ 10.9 µM); MIC [22]: 4 µg/mL (≈ 10.9 µM); MIC [23]: > 32 µg/mL
C[C@@H](O)C1C(=O)N2C(C(=O)O)=C(CN3CC[C@H](NC(=N)NS(C)(=O)=O)C3)[C@H](C)C12 (stereo partly drawn) [Compound 106]	4 (≈ 9.31 µM)	2 (≈ 4.66 µM)	8 (≈ 18.6 µM)	2 (≈ 4.66 µM)	1 (≈ 2.33 µM)	1 (≈ 2.33 µM)	2 (≈ 4.66 µM)	1 (≈ 2.33 µM)	2 (≈ 4.66 µM)	1 (≈ 2.33 µM)	0.5 (≈ 1.16 µM)	1 (≈ 2.33 µM)	1 (≈ 2.33 µM)	2 (≈ 4.66 µM)	1 (≈ 2.33 µM)	≤ 0.008	4 (≈ 9.31 µM)	4 (≈ 9.31 µM)	2 (≈ 4.66 µM)	1 (≈ 2.33 µM)	MIC [12]: 4 µg/mL (≈ 9.31 µM); MIC [13]: 1 µg/mL (≈ 2.33 µM); MIC (strain #23 Serratia marcescens): 2 µg/mL (≈ 4.66 µM); MIC (strain #24 Serratia marcescens): 2 µg/mL (≈ 4.66 µM); MIC [14]: 1 µg/mL (≈ 2.33 µM); MIC (strain #26 Shigella sonnei): 1 µg/mL (≈ 2.33 µM); MIC (strain #27 Shigella flexneri): 0.5 µg/mL (≈ 1.16 µM); MIC [15]: 1 µg/mL (≈ 2.33 µM); MIC [16]: 8 µg/mL (≈ 18.6 µM); MIC [17]: 8 µg/mL (≈ 18.6 µM); MIC [18]: 4 µg/mL (≈ 9.31 µM); MIC [19]: 8 µg/mL (≈ 18.6 µM); MIC [20]: 8 µg/mL (≈ 18.6 µM); MIC [21]: 8 µg/mL (≈ 18.6 µM); MIC [22]: 16 µg/mL (≈ 37.3 µM); MIC [23]: > 32 µg/mL
CC(=O)NC(=N)N[C@H]1CCN(CC2=C(C(=O)O)N3C(=O)C([C@@H](C)O)C3[C@H]2C)C1 (stereo partly drawn) [Compound 111]	1 (≈ 2.54 µM)	4 (≈ 10.2 µM)	4 (≈ 10.2 µM)	4 (≈ 10.2 µM)	0.5 (≈ 1.27 µM)	0.5 (≈ 1.27 µM)	2 (≈ 5.08 µM)	1 (≈ 2.54 µM)	1 (≈ 2.54 µM)	0.5 (≈ 1.27 µM)	0.5 (≈ 1.27 µM)	0.5 (≈ 1.27 µM)	0.5 (≈ 1.27 µM)	1 (≈ 2.54 µM)	1 (≈ 2.54 µM)	≤ 0.008	4 (≈ 10.2 µM)	2 (≈ 5.08 µM)	2 (≈ 5.08 µM)	0.5 (≈ 1.27 µM)	MIC [12]: 2 µg/mL (≈ 5.08 µM); MIC [13]: 0.5 µg/mL (≈ 1.27 µM); MIC (strain #23 Serratia marcescens): 1 µg/mL (≈ 2.54 µM); MIC (strain #24 Serratia marcescens): 2 µg/mL (≈ 5.08 µM); MIC [14]: 0.5 µg/mL (≈ 1.27 µM); MIC (strain #26 Shigella sonnei): 0.5 µg/mL (≈ 1.27 µM); MIC (strain #27 Shigella flexneri): 0.5 µg/mL (≈ 1.27 µM); MIC [15]: 0.5 µg/mL (≈ 1.27 µM); MIC [16]: 4 µg/mL (≈ 10.2 µM); MIC [17]: 4 µg/mL (≈ 10.2 µM); MIC [18]: 1 µg/mL (≈ 2.54 µM); MIC [19]: 4 µg/mL (≈ 10.2 µM); MIC [20]: 8 µg/mL (≈ 20.3 µM); MIC [21]: 4 µg/mL (≈ 10.2 µM); MIC [22]: 8 µg/mL (≈ 20.3 µM); MIC [23]: > 32 µg/mL
